Measured values: patent US20260062426A1, “CYCLIN DEPENDENT KINASE DEGRADERS AND METHODS OF USE THEREOF” (Differentiated Therapeutics Inc, priority 2023, published 2026)

Key:
Assay type in all cases: cell-based
CDK9 = target: T1, CDK9 (Homo sapiens, UniProt P50750); experiment: CDK9 HIBIT PQ (protein quantification), degradation; conditions: for DC50: PQ = Protein Quantification
T1 construct: host or cells: HEK293
In short: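 In 384-well plates, HEK293 cells with HiBiT-tagged CDK9, grown in DMEM with 10% FBS, were seeded at 1.6×10^5 cells/well in 50 uL and kept overnight at 37° C and 5% CO2. After compound treatment, a HiBiT assay quantified CDK9 protein against a high control of 0.1% DMSO-treated cells and a low control of culture medium only. Maximal degradation, Dmax and DC50 were derived from the resulting signal.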

CCNE1 = target: T2, CCNE1 (Homo sapiens, UniProt P24864+P24941); experiment: CCNE1 HIBIT PQ (protein quantification), degradation; conditions: for CCNE1 HIBIT PQ Max (%): Max = Maximum; for DC50: PQ = Protein Quantification
T2 construct: host or cells: HEK293
In short: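 HEK293 cells with HiBiT-tagged CCNE1 were cultured in EMEM containing 10% FBS, plated at 1.6×10⁵ cells/well in 50 uL in 384-well plates and left overnight at 37° C with 5% CO₂. After 6 hours of compound exposure, a HiBiT assay measured CCNE1 protein, with 0.1% DMSO-treated cells as the high control and medium alone as the low control. DC50 and maximal degradation came from these readings.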

CDK2 = target: T3, CDK2 (Homo sapiens, UniProt P24941); experiment: CDK2 HIBIT PQ (protein quantification), degradation; conditions: for CDK2 HIBIT PQ Max (%): Max = Maximum; for DC50: PQ = Protein Quantification
T3 construct: host or cells: HEK293
In short: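 HEK293 cells carrying HiBiT-tagged CDK2 were grown in DMEM with 10% FBS and seeded in 384-well plates at 1.6×10^5 cells/well in 50 uL, then incubated overnight at 37° C and 5% CO2. After 6 hours of compound treatment, 20 μL of HiBiT reagent (Nano-Glo HiBiT lytic buffer, lytic substrate, LgBiT protein) was added and plates were shaken for 20 minutes at room temperature before an EnVision reading. High control was 0.1% DMSO and low control was medium only. Maximal degradation and DC50 were derived from these readings.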

T1 sequence (P50750 whole entry): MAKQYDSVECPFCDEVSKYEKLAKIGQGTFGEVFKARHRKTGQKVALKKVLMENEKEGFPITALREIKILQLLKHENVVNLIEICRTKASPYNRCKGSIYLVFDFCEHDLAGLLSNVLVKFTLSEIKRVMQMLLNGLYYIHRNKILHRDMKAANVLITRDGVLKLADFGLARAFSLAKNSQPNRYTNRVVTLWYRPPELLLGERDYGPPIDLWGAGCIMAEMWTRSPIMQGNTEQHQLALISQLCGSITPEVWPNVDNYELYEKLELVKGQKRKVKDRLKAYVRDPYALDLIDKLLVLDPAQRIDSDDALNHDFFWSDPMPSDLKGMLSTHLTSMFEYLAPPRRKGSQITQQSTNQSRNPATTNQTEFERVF

| SMILES | Dmax (CDK9; Max = Maximum) [%] | CCNE1 HIBIT PQ Max (%) (CCNE1) | DC50 (CCNE1) [nM] | CDK2 HIBIT PQ Max (%) (CDK2) | DC50 (CDK2) [nM] | DC50 (CDK9) [nM] | CDK9 HIBIT PQ Max (%) (CDK9; Max = Maximum) |
| --- | --- | --- | --- | --- | --- | --- | --- |
| CC(C)Oc1c(-c2cn[nH]c2)ncn2nc(Nc3ccc(S(=O)(=O)c4cccc(C[C@H]5C[C@@H](c6ccc7c(c6)CN([C@@H]6CCC(=O)NC6=O)C7=O)C5)c4)cc3F)nc12 (stereo in doubt) [Compound 79, (R)-3-(5-((1r,3S)-3-(3-((3-fluoro-4-((8-isopropoxy-7-(1H-pyrazol-4-yl)-[1,2,4]triazolo[1,5-c]pyrimidin-2-yl)amino)phenyl)sulfonyl)benzyl)cyclobutyl)-1-oxoisoindolin-2-yl)piperidine-2,6-dione] | 26 | 84 | 13.1 | 96 | 5.9 |  |  |
| CC(C)Oc1c(-c2cn[nH]c2)ncn2nc(Nc3ccc(S(=O)(=O)N(C)CCCN4C5CC4CN(c4ccc6c(c4)n(C)c(=O)n6C4CCC(=O)NC4=O)C5)cc3F)nc12 (stereo not shown) [Compound 70] | 9 | 20 |  | 61 | 0.3 |  |  |
| CC(C)Oc1c(-c2cn[nH]c2)ncn2nc(Nc3cc(F)c(S(=O)(=O)N(C)CCCN4CCC(c5ccc6c(c5)n(C)c(=O)n6C5CCC(=O)NC5=O)CC4)cc3F)nc12 (racemic) [Compound 60] | 75 | 74 | 0.45 | 93 |  | 1.52 |  |
| CC(C)Oc1c(-c2cn[nH]c2)ncn2nc(Nc3ccc(S(=O)(=O)N4CC5(CCCN(CC6CCN(c7cccc8c7n(C)c(=O)n8C7CCC(=O)NC7=O)CC6)C5)C4)cc3F)nc12 (racemic) [Compound 76] | 46 | 40 |  | 87 | 5.8 |  |  |
| CC(C)Oc1c(-c2cn[nH]c2)ncn2nc(Nc3ccc(S(=O)(=O)c4cccc(CN5CC6(C5)CN(c5ccc7c(c5)CN(C5CCC(=O)NC5=O)C7=O)C6)c4)cc3F)nc12 (racemic) [Compound 10] | 54 | 60 | 10.6 | 86 | 3.76 | 25.5 |  |
| CC(C)Oc1c(-c2cn[nH]c2)ncn2nc(Nc3ccc(S(=O)(=O)N(C)CCCN4CCC(c5ccc6c(c5)n(C)c(=O)n6[C@H]5CCC(=O)NC5=O)CC4)cc3F)nc12 (racemic) [Compound 16] | 94 | 79 | 0.21 | 91 | < 0.152 | 0.52 |  |
| CC(C)Oc1c(-c2cn[nH]c2)ncn2nc(Nc3ccc(S(=O)(=O)c4cccc(C[C@H]5C[C@H](c6ccc7c(c6)CN(C6CCC(=O)NC6=O)C7=O)C5)c4)cc3F)nc12 (stereo partly shown) [Compound 30] | 54 | 79 | 29.5 | 96 | 7.2 | 147 |  |
| Cc1c(S(=O)(=O)N(C)CCCN2CCC(c3ccc4c(c3)n(C)c(=O)n4C3CCC(=O)NC3=O)CC2)ccc(Nc2nc3c(OC(C)C)c(-c4cn[nH]c4)ncn3n2)c1F (racemic) [Compound 55, rac-(R)-N-(3-(4-(1-(2,6-dioxopiperidin-3-yl)-3-methyl-2-oxo-2,3-dihydro-1H-benzo[d]imidazol-5-yl)piperidin-1-yl)propyl)-3-fluoro-4-((8-isopropoxy-7-(1H-pyrazol-4-yl)-[1,2,4]triazolo[1,5-c]pyrimidin-2-yl)amino)-N,2-dimethylbenzenesulfonamide] | 83 | 76 | 0.51 | 91 | 0.1 | 1.13 |  |
| CC(C)Oc1c(-c2cn[nH]c2)ncn2nc(NC3CCN(S(=O)(=O)c4cccc(CN5CC6(C5)CN(c5ccc7c(c5)CN(C5CCC(=O)NC5=O)C7=O)C6)c4)CC3)nc12 (racemic) [Compound 2] | 92 | 41 |  | 46 |  | 25.7 |  |

Next, values leading:

| Dmax (CDK9; Max = Maximum) [%] | CCNE1 HIBIT PQ Max (%) (CCNE1) | DC50 (CCNE1) [nM] | CDK2 HIBIT PQ Max (%) (CDK2) | DC50 (CDK2) [nM] | DC50 (CDK9) [nM] | CDK9 HIBIT PQ Max (%) (CDK9; Max = Maximum) | SMILES |
| --- | --- | --- | --- | --- | --- | --- | --- |
| 9 | 47 |  | 91 | 19 |  |  | CC(C)Oc1c(-c2cn[nH]c2)ncn2nc(Nc3ccc(S(=O)(=O)c4cccc(CC5CC(c6ccc7c(N8CCC(=O)NC8=O)nn(C)c7c6)C5)c4)cc3F)nc12 (stereo not shown) [Compound 33, 1-(6-(3-(3-((3-fluoro-4-((8-isopropoxy-7-(1H-pyrazol-4-yl)-[1,2,4]triazolo[1,5-c]pyrimidin-2-yl)amino)phenyl)sulfonyl)benzyl)cyclobutyl)-1-methyl-1H-indazol-3-yl)dihydropyrimidine-2,4(1H,3H)-dione] |
| 91 | 81 | 7.36 | 92 | 1.58 | 10.2 |  | CC(C)Oc1c(-c2cn[nH]c2)ncn2nc(Nc3ccc(S(=O)(=O)c4cccc(CN5CCC(c6ccc7c(N8CCC(=O)NC8=O)nn(C)c7c6)CC5)c4)cc3F)nc12 [Compound 8, 1-(6-(1-(3-((3-fluoro-4-((8-isopropoxy-7-(1H-pyrazol-4-yl)-[1,2,4]triazolo[1,5-c]pyrimidin-2-yl)amino)phenyl)sulfonyl)benzyl)piperidin-4-yl)-1-methyl-1H-indazol-3-yl)dihydropyrimidine-2,4(1H,3H)-dione] |
| 104 | 96 | 9.43 | 98 | 2.2 | 11.6 |  | CC(C)Oc1c(-c2cn[nH]c2)ncn2nc(N[C@H]3CCN(S(=O)(=O)c4cccc(CN5CCN(c6ccc7c(N8CCC(=O)NC8=O)nn(C)c7c6)C(C)C5)c4)C[C@H]3C)nc12 (stereo partly shown) [Compound 49] |
| 99 | 93 | 0.72 | 95 | 0.35 | 1.37 |  | CC(C)Oc1c(-c2cn[nH]c2)ncn2nc(Nc3ccc(S(=O)(=O)N(C)CCCN4CCC(c5ccc6c(N7CCC(=O)NC7=O)nn(C)c6c5)CC4)cc3F)nc12 [Compound 15] |
|  | 67 | 1.02 | 83 | 0.5 | 7.24 | 71 | CC(C)Oc1c(-c2cn[nH]c2)ncn2nc(Nc3ccc(S(=O)(=O)N4CCCC(CN5CCC(c6ccc7c(N8CCC(=O)NC8=O)nn(C)c7c6)CC5)C4)cc3F)nc12 (single isomer, unassigned) [Compound 95] |
| 77 | 82 | 4.11 | 88 | 1.7 | 21.7 |  | CC(C)Oc1c(-c2cn[nH]c2)ncn2nc(Nc3ccc(S(=O)(=O)N4CCCC(CN5CCC(c6ccc7c(N8CCC(=O)NC8=O)nn(C)c7c6)C(C)C5)C4)cc3F)nc12 (stereo not shown) [Compound 92] |
| 23 | 28 |  | 89 | 7.6 |  |  | CC(C)Oc1c(-c2cn[nH]c2)ncn2nc(Nc3ccc(S(=O)(=O)c4cccc(C(C)N5CCN(c6ccc7c(N8CCC(=O)NC8=O)nn(C)c7c6)C6CC65)c4)cc3F)nc12 (stereo not shown) [Compound 83] |
| 72 | 79 | 1.4 | 90 | 0.4 | 3.32 |  | CC(C)Oc1c(-c2cn[nH]c2)ncn2nc(Nc3ccc(S(=O)(=O)N4CCCC(CN5CCC(c6ccc7c(N8CCC(=O)NC8=O)nn(C)c7c6)CC5)C4)cc3F)nc12 (racemic) [Compound 87, rac-(R)-1-(6-(1-((1-((3-fluoro-4-((8-isopropoxy-7-(1H-pyrazol-4-yl)-[1,2, 4]triazolo[1,5-c]pyrimidin-2-yl)amino)phenyl)sulfonyl)piperidin-3-yl)methyl)piperidin-4-yl)-1-methyl-1H-indazol-3-yl)dihydropyrimidine-2,4(1H,3H)-dione] |
| 78 | 67 | 12.7 | 95 | 2.3 | 34.8 |  | CC(C)Oc1c(-c2cn[nH]c2)ncn2nc(Nc3ccc(S(=O)(=O)c4cccc(C(C)N5CCN(c6ccc7c(N8CCC(=O)NC8=O)nn(C)c7c6)CC5)c4)cc3F)nc12 (single isomer, unassigned) [Compound 98] |
| 56 | 56 | 1.22 | 77 | 0.7 | 5.87 |  | CC(C)Oc1c(-c2cn[nH]c2)ncn2nc(Nc3ccc(S(=O)(=O)N4CCCC(CN5CCC(c6ccc7c(N8CCC(=O)NC8=O)nn(C)c7c6)CC5(C)C)C4)cc3F)nc12 (stereo not shown) [Compound 93, 1-(6-(1-((1-((3-fluoro-4-((8-isopropoxy-7-(1H-pyrazol-4-yl)-[1,2,4]triazolo[1,5-c]pyrimidin-2-yl)amino)phenyl)sulfonyl)piperidin-3-yl)methyl)-2,2-dimethylpiperidin-4-yl)-1-methyl-1H-indazol-3-yl)dihydropyrimidine-2,4(1H,3H)-dione] |
| 12 | 36 |  | 85 | 2 |  |  | CC(C)Oc1c(-c2cn[nH]c2)ncn2nc(Nc3ccc(S(=O)(=O)c4cccc(CN5CC(c6ccc7c(N8CCC(=O)NC8=O)nn(C)c7c6)C5)c4)cc3F)nc12 [Compound 78] |
